Conditions: Liquid, Ebulliometric method (Recirculating still)

CCCCOCC [butyl ethyl ether]
Conditions	vapor or sublimation pressure [kPa]
336.22 K	38.6
340.35 K	44.96
344.21 K	51.67
346.8 K	56.24
348.84 K	60
350.44 K	63.63
354.01 K	71.58
357.31 K	79.6
361.44 K	90.59
363.47 K	96.36
365.25 K	101.3

CCCOCCC [dipropyl ether]
Conditions	vapor or sublimation pressure [kPa]
326.73 K	29.35
332.57 K	36.71
336.55 K	42.54
341.15 K	49.98
345.34 K	57.75
346.55 K	60
346.63 K	60
347.55 K	62.3
352.11 K	72.36
354.82 K	78.97
356.85 K	84.25
358.73 K	89.3
361.18 K	96.32
362.87 K	101.3

CCCCCCC [heptane]
Conditions	vapor or sublimation pressure [kPa]
331.39 K	26.15
335.45 K	30.59
341.94 K	38.89
347.16 K	46.8
349.68 K	50.97
352.58 K	56.2
354.63 K	60
356.78 K	64.6
359.38 K	70.24
362.11 K	76.47
364.95 K	83.45
366.87 K	88.4
371.28 K	101.3
